Measured values as given in BindingDB's records for doi:10.1016/s1074-5521(97)90198-8 (Massachusetts Institute of Technology, 1997).

Biological target: Methionine aminopeptidase 2 (Homo sapiens, UniProt P50579)
Experiment: Enzymatic Assay
Conditions: pH 7.35; 37 °C
Source text: Enzymatic assay using recombinant human type 2 methionine aminopeptidase (MetAP2).

Methionine aminopeptidase 2, sequence (P50579 whole entry): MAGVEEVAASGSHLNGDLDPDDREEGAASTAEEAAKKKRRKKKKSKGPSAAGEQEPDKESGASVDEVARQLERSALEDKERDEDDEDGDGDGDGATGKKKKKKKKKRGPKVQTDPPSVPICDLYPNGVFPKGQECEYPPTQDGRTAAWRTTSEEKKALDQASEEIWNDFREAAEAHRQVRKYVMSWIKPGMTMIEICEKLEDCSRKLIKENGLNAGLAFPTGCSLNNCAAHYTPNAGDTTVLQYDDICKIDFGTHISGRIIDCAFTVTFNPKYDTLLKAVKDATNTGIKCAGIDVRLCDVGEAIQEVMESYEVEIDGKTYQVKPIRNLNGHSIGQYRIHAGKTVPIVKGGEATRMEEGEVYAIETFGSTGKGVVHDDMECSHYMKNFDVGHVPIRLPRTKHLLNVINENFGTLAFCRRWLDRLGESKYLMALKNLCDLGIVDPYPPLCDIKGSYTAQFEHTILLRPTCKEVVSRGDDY

Row | Compound | IC50 [nM]
1 | CO[C@H]1C([C@]2(C)OC2CC=C(C)C)[C@]2(CC[C@H]1OC(=O)NC(=O)CCl)CO2 (stereo not given in full) [AGM-1470] | 1
2 | CO[C@@H]1[C@H](O)CC[C@]2(CO2)[C@@]1(O)[C@]1(C)OC1CC=C(C)C (stereo not given in full) [FOS-34] | 4
3 | CO[C@H]1C([C@]2(C)OC2CC=C(C)C)[C@]2(CC[C@H]1O)CO2 (stereo not given in full) [FOS-37] | 8
4 | CO[C@H]1C([C@]2(C)OC2CC=C(C)C)[C@@](O)(SC)CC[C@H]1OC(=O)NC(=O)CCl (stereo not given in full) [FOS-64] | 3000
5 | CO[C@@H]1[C@H](OC(=O)NC(=O)CCl)CC[C@]2(CO2)[C@@]1(O)[C@]1(C)OC1CC=C(C)C (stereo not given in full) [FOS-68] | 2
6 | CO[C@@H]1[C@H](OC(=O)CCCCl)CC[C@]2(CO2)[C@@]1(O)[C@]1(C)OC1CC=C(C)C (stereo not given in full) [FOS-69] | 0.1
7 | CO[C@H]1C([C@]2(C)OC2CC=C(C)C)[C@]2(CC[C@H]1OC(=O)CCCCl)CO2 (stereo not given in full) [FOS-70] | 3.5
8 | CO[C@@H]1C(=O)CC[C@]2(CO2)C1[C@]1(C)OC1CC=C(C)C (stereo not given in full) [FOS-72] | 6
9 | CO[C@@H]1[C@H](O)CC[C@](O)(SC)[C@@]1(O)[C@]1(C)OC1CC=C(C)C (stereo not given in full) [FOS-201] | 45
10 | CO[C@H]1C([C@]2(C)OC2CC=C(C)C)[C@@](O)(SC)CC[C@H]1O (stereo not given in full) [FOS-202] | 5000
